Structures are written as SMILES.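 Dose response: 5 concentrations. Exposure: 48 h. Format: 96-well plates. Endpoint: linear interpolation; highest concentration if not reached. Abbreviation: GI50, concentration required for 50% inhibition of growth. TGI denotes the concentration required for complete inhibition of growth.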 A value given as a limit tells only on which side of the number the result lay.

Among the test systems are NCI-H23 lung; A549 NSCLC; ACHN renal; K-562 leukemia; SR leukemia; SK-OV-3 ovarian; MCF7 breast; NCI/ADR-RES ovarian; DU-145 prostate; BT-549 breast.
Common to all, as to experiment: NCI anticancer screen, dose series, 48 h

Consider `COC1OC(C)C2OC(C)(C)OC2C1OC(C)=O` (stereo unspecified), for which the TGI in the assay on NCI-H23 lung, in the assay with A549 NSCLC, in the assay on ACHN renal, in the assay with K-562 leukemia and in the assay with SR leukemia was more than 100 µM in each case.
For `CCCCCCCCCCCCCC(=O)CSCCNC(=O)CCNC(=O)[C@@H](O)C(C)(C)COP(=O)(O)OP(=O)(O)OCC1OC(n2cnc3c(N)ncnc32)C(O)C1OP(=O)(O)O` (stereo partly specified), the TGI in the assay with NCI-H23 lung came to 42 µM; with A549 NSCLC it was 45.9 µM; in the assay on ACHN renal it was 38 µM; in the assay with SK-OV-3 ovarian, 27.8 µM.
Take `CN(C)CCNC(=O)c1cccc2ccc(-c3ccc(-c4ccccc4)cc3)nc12`: the TGI was 16.6 µM with NCI-H23 lung; 7.66 µM in the assay with A549 NSCLC; 12.8 µM in the assay on ACHN renal; 5.64 µM in the assay on K-562 leukemia; 4.64 µM in the assay with SR leukemia; 31.5 µM in the assay with SK-OV-3 ovarian.
`CCN(CC)CCn1[nH]c2c3ccc(=O)cc3sc3c(NCCN)ccc1c32`: the TGI with A549 NSCLC turned out to be 14.5 µM; in the assay with ACHN renal, 2.54 µM; with K-562 leukemia it was 1.42 µM; with SR leukemia, 1.71 µM; with SK-OV-3 ovarian, 3.74 µM.
As for `O=C(CC(=O)c1cccc(Cl)c1)c1cccc(Cl)c1`, the GI50 with NCI-H23 lung was 1910 nM; in the assay with MCF7 breast, 1720 nM; with NCI/ADR-RES ovarian it was 2060 nM; in the assay with A549 NSCLC, 4.68 µM; in the assay with ACHN renal, 2710 nM; in the assay with K-562 leukemia it was 1120 nM. Also, the GI50 in the assay with DU-145 prostate is 2770 nM; with SK-OV-3 ovarian, 3850 nM. Also, the TGI in the assay on NCI-H23 lung is more than 100 µM; in the assay with MCF7 breast, more than 100 µM; in the assay on NCI/ADR-RES ovarian it was 6.35 µM; with A549 NSCLC it was more than 100 µM; with ACHN renal, more than 100 µM; in the assay with K-562 leukemia, more than 100 µM. The TGI in the assay with DU-145 prostate and with SK-OV-3 ovarian was more than 100 µM in each case.
With `S=C=NCCc1ccccc1`, the TGI with NCI-H23 lung was 1.31 µM; with A549 NSCLC, 6.38 µM; in the assay on ACHN renal, 3 µM; in the assay on K-562 leukemia it was more than 64.1 µM; in the assay with SR leukemia, 86.9 µM; in the assay on SK-OV-3 ovarian, 3.24 µM.
Take `O=C(C/C(CCC(=O)N(Cc1ccccc1)Cc1ccccc1)=N/Nc1ccc([N+](=O)[O-])cc1[N+](=O)[O-])c1ccccc1`: the TGI with NCI-H23 lung, in the assay with A549 NSCLC, with K-562 leukemia and in the assay on SK-OV-3 ovarian was more than 100 µM in each case.
`c1ccc(P(=C2c3ccccc3-c3ccccc32)(c2ccccc2)c2ccccc2)cc1`: the TGI in the assay with NCI-H23 lung was determined as 9.97 µM; in the assay on A549 NSCLC it was 29.6 µM; in the assay on ACHN renal it was 9.82 µM; with K-562 leukemia it was 6 µM; in the assay on SK-OV-3 ovarian it was 80.1 µM.
In the same order, the values of `CC[N+](C)(CC)CC(C)(C)C(=O)/C=C/c1ccc(/C=C/C(=O)C(C)(C)C[N+](C)(CC)CC)cc1` are more than 100 µM, more than 100 µM, more than 100 µM, more than 100 µM and more than 100 µM.
Regarding `CC12CCC3c4cc(Br)c(O)c(Br)c4CCC3C1CCC2O` (stereo unspecified), the TGI is 74.6 µM in the assay on MCF7 breast; 62.5 µM in the assay on NCI/ADR-RES ovarian; 40.9 µM with A549 NSCLC; 73.7 µM in the assay with ACHN renal; 64.6 µM in the assay with K-562 leukemia; more than 100 µM with DU-145 prostate. Moreover, the TGI with SK-OV-3 ovarian is 51.4 µM; with BT-549 breast, 30.2 µM.
Take `C#CCN(C(=O)C(F)(F)F)c1ccc(C(=O)c2ccc(N(CC#C)C(=O)C(F)(F)F)cc2)cc1`: the TGI in the assay on NCI-H23 lung was 71.6 µM; with A549 NSCLC it was more than 100 µM; in the assay on ACHN renal it was more than 100 µM; in the assay with K-562 leukemia, 62.9 µM.
For `Cc1ccc(NCCN(C)C)c2c(=O)c3ccccc3sc12`, the GI50 with NCI-H23 lung is 1970 nM; with MCF7 breast, 1470 nM; with NCI/ADR-RES ovarian it was 1930 nM; in the assay on A549 NSCLC, 1.35 µM; in the assay on ACHN renal, 1680 nM; in the assay with K-562 leukemia, 1600 nM. The GI50 was 2020 nM in the assay with DU-145 prostate, 1730 nM in the assay on SK-OV-3 ovarian and 3.89 µM with BT-549 breast. Besides, the TGI in the assay on NCI-H23 lung was 4.75 µM; in the assay with MCF7 breast, 2.95 µM; with NCI/ADR-RES ovarian, 4.6 µM; in the assay on A549 NSCLC, 3.4 µM; with ACHN renal it was 3.53 µM; in the assay on K-562 leukemia it was 3.56 µM. The TGI in the assay on DU-145 prostate is 4.63 µM; in the assay with SK-OV-3 ovarian it was 3.92 µM; with BT-549 breast it was 15.5 µM.
On to `Cc1nc2sccn2c1C(=O)NC(=O)Nc1ccc(Cl)cc1`, for which the TGI in the assay with NCI-H23 lung, in the assay on A549 NSCLC, in the assay on ACHN renal and in the assay with K-562 leukemia was more than 100 µM each time.
For the compound `CCOc1ccc(O)cc1[P+](c1ccccc1)(c1ccccc1)c1ccccc1`, the TGI came out at 5.55 µM in the assay on NCI-H23 lung; 43.2 µM with A549 NSCLC; 81.7 µM in the assay with ACHN renal; 9.48 µM with K-562 leukemia; 27.1 µM in the assay on SK-OV-3 ovarian.
For `COC1C2c3cc4c(cc3CC(C#N)(c3ccccc32)N1C(=O)c1ccccc1)OCO4` (stereo unspecified), the TGI in the assay on NCI-H23 lung, in the assay with ACHN renal, in the assay with K-562 leukemia, in the assay on SR leukemia and with SK-OV-3 ovarian was more than 100 µM in each case.
`Cc1cc(=O)[nH]c(CNC(=O)c2cccc(C(=O)NCc3cc(=O)[nH]c(C)n3)c2)n1`: the TGI in the assay on NCI-H23 lung, in the assay with A549 NSCLC, in the assay on ACHN renal, in the assay with K-562 leukemia and in the assay on SK-OV-3 ovarian was more than 100 µM each time.
Regarding `COC(=O)/C=c1\s/c(=C\C(=O)OC)c2ccccc12`, the TGI with NCI-H23 lung, in the assay with A549 NSCLC, in the assay with ACHN renal, in the assay on K-562 leukemia and with SK-OV-3 ovarian was more than 100 µM in each case.
Regarding `O=C(CCc1nnc2s/c(=C\c3ccccc3Cl)c(=O)n12)Nc1cc(Cl)ccc1Cl`, the TGI with NCI-H23 lung, in the assay on A549 NSCLC, in the assay with ACHN renal, with K-562 leukemia, in the assay with SR leukemia and in the assay on SK-OV-3 ovarian was more than 100 µM in each case.

(Values after PubChem BioAssay (NCI).)
